Test results published in US11319348B2, “Synthetic beta-amyloid peptides capable of forming stable antigenic oligomers” (The Regents of the University of California, priority 2016, dated 2022).
“Also recorded” adds a separate entry of the source.

Columns and labels:
[1] = tested on: SH-SY5Y cells; assay: LDH release assay; type: cell-based, human
Description: Aβ is known to be toxic toward neurons and neuronally derived cells (I. Benilova, et al., 2012, cited supra). To corroborate the toxicity of Aβ, we prepared oligomers of Aβ42 and studied their toxicity toward a human neuroblastoma cell line, SH-SY5Y. Aβ oligomers were prepared according to the procedure developed by Teplow and coworkers using recombinantly expressed Aβ42 pretreated with NH4OH (purchased from rPeptide) (D. B. Teplow, Methods Enzymol. 2006 413, 20-33; and Y. Fezoui, et al., Amyloid. 2000 7, 166-178; the disclosures of which are incorporated herein by reference). Under the conditions of the oligomer preparation, Aβ42 forms predominantly monomer, trimer, and tetramer as assessed by SDS-PAGE (FIG. 28A). It was also observed that bands migrated with molecular weights consistent with a pentamer and hexamer. SH-SY5Y cells were treated with varying concentrations of Aβ42, and toxicity was evaluated using a lactate dehydrogenase (LDH) release assay. Aβ42 increased LDH release in a dose-dependent manner at concentrations as low as 2.5 μM, corroborating the toxicity of Aβ42 (FIG. 28B).
It was hypothesized that trimers 3 and 4 may elicit toxicity similarly to Aβ42. The toxicities of trimers 3 and 4 towards SH-SY5Y cells were evaluated using an LDH assay, using deionized water (vehicle) and peptides 1 and 2 as controls. Trimer 4 increased LDH release in a dose-dependent manner at concentrations as low as 1.5 μM, indicating toxicity toward SH-SY5Y cells (FIG. 29A). LDH release was observed as early as 48 h after addition to the cells and reached a maximum after 72 h.
Many oligomers formed by full-length Aβ are toxic toward cells (I. Benilove, E. Karan, and B. De Strooper, Nat. Neurosci. 2012 15, 349-357; and M. E. Larson and S. E. Lesne J. Neurochem. 2012 120, 125-139; the disclosures of which are incorporated herein by reference). To test whether the oligomers formed by peptide 8 are also toxic, the toxicity of peptide 8 toward neuronally derived SH-SY5Y cells were evaluated using a lactate dehydrogenase (LDH) release assay. Peptide 8 and 10 were compared to investigate how the hexamer-forming Aβ16-36-derived peptide compares to a non-oligomerizing homologue. The toxicity of peptides 2 and 11 were also evaluated to better understand the relationship between oligomerization and toxicity.
The toxicities of peptides 1 and […], and trimers 3 and 4 toward SH-SY5Y cells were assessed by LDH release and caspase-3 activation assays. Cells were incubated in the presence or absence of equivalent concentrations of peptides 1 or 3, or trimers 3 and 4 for 72 h in 96-well plates. The LDH release assay was performed using the Pierce LDH Cytotoxicity Assay Kit from Thermo Scientific. The caspase-3 assay was performed using the Roche APO-One Homogeneous Caspase-3/7 Assay. Experiments were performed in replicates of five and an additional 10 wells were used for controls. Cells were cultured in the inner 60 wells (rows B-G, columns 2-11) of the 96-well plate. DMEM:F12 media (100 μL) was added to the outer wells (rows A and H, columns 1 and 12), in order to ensure the greatest reproducibility of data generated in the inner wells.
A 10 mg/mL stock solution of peptides 1 or […], or trimers 3 and 4 was prepared gravimetrically by dissolving 1 mg of each compound in 100 μL of deionized water that was either filtered through a 0.2 μm syringe filter or autoclaved. The stock solution was used to create 180 μM working solutions of peptides 1 or 3, or 60 μM working solutions of trimers 3 and 4 (these solutions contain equivalent concentrations of peptide). The 180 μM working solutions of peptides 1 and 2 were serially diluted with deionized water to create 90 μM working solutions of peptides 1 and 2. The 60 μM working solutions of trimers 3 and 4 were serially diluted with deionized water to create 30 μM, 15 μM, and 7.5 μM working solutions of trimers 3 and 4.
SH-SY5Y cells were plated in a 96-well plate at 30,000 cells per well. […]

[2] = Tricine SDS-PAGE with silver staining; type: physicochemical
From the text: Trimer 3 migrates as a single band at a molecular weight consistent with a hexamer. Trimer 4, in contrast, migrates as two distinct bands: a band consistent with the molecular weight of a dodecamer, and a band consistent with the molecular weight of a trimer.
Peptide 8 assembles to form a hexamer in SDS-PAGE. […] To further confirm the oligomerization state of […], it was compared to covalent trimers 3 and 4 (FIGS. 19A and 19B), which was previously determined to migrate respectively as 10.6 kDa hexamers and 21.2 kDa dodecamers in equilibrium with the 5.3 kDa trimers. Peptide 8 migrates at the same molecular weight as the hexamer band of trimer 3, providing further evidence that peptide 8 assembles to form a hexamer in SDS-PAGE.
The oligomerization of peptides 1 and 2 and trimers 3 and 4 was studied by Tricine SDS-PAGE.
Each peptide or trimer was dissolved in deionized water to a concentration of 10 mg/mL. An aliquot of the 10 mg/mL solutions was diluted with deionized water to create 2 mg/mL solutions of peptides 1 and 2, or 0.12 mg/mL solutions of trimers 3 and 4. The […] of peptides 1 and 2, as well as the 0.12 mg/mL solutions of trimers 3 and 4 were further diluted with 2×SDS-PAGE loading buffer (100 mM Tris buffer at pH 6.8, 20% (v/v) glycerol, and 4% SDS) to create 1 mg/mL working solutions of peptides 1 and 2, and 0.06 mg/mL working solutions of trimers 3 and 4. A 5 μL aliquot of each working solution was run on a 16% polyacrylamide gel with a 4% stacking polyacrylamide gel. The gels were run at a constant 60 volts at 4° C.
Staining with silver nitrate was used to visualize peptides 1 and 2 and trimers 3 and 4 in the SDS-PAGE gel. Briefly, the gel was removed from the casting glass and rocked in fixing solution (50% (v/v) methanol and 5% (v/v) acetic acid in deionized water) for 20 min. Next, the fixing solution was discarded and the gel was rocked in 50% (v/v) methanol for 10 min. Next, the 50% methanol was discarded and the gel was rocked in deionized water for 10 min. Next, the water was discarded and the gel was rocked in 0.02% (w/v) sodium thiosulfate in deionized water for 1 min. The sodium thiosulfate was discarded and the gel was rinsed with deionized water (2×). After the last rinse, the gel was submerged in chilled 0.1% (w/v) silver nitrate in deionized water and rocked at 4° C. for 20 min. Next, the silver nitrate solution was discarded and the gel was rinsed with deionized water (2×). To develop the gel, the gel was incubated in developing solution (2% w/v sodium carbonate, 0.04% formaldehyde until the desired intensity of staining was reached (˜1-3 min). When the desired intensity of staining was reached, the development was topped by discarding the developing solution and submerging the gel in 5% acetic acid.

[3] = size exclusion chromatography in Tris buffer; type: physicochemical
From the text: The elution profile of peptide 8 was compared to the size standards vitamin B12, aprotinin, and cytochrome c, as well as peptide 2. Peptide 8 elutes as a broad peak with three distinct humps (FIG. 41B). […] Peptide 2 elutes as two distinct peaks: a larger peak with an elution volume consistent with the molecular weight of a dimer, and a smaller peak with an elution volume consistent with the molecular weight of a trimer (FIG. 41B). […]

Aβ42: oligomers prepared from recombinantly expressed Aβ42 pretreated with NH4OH (purchased from rPeptide) [reference compound]
lowest concentration with increased LDH release / toxicity (concentrations as low as) ([1]; SH-SY5Y cells): 2.5 µM

peptide 8: Aβ16-22 and Aβ30-36 β-strands linked by two δOrn turn units, N-methyl on Phe19, native Met35 (Seq. ID 33-34)
dose dependence of LDH release ([1]; 50, 100 and 200 μM): No dose dependence
LDH release / toxicity toward SH-SY5Y cells, in words ([1]; SH-SY5Y cells): toxic
lowest concentration with increased LDH release / toxicity (concentrations as low as) ([1]; SH-SY5Y cells): 50 µM
oligomer state by migration in SDS-PAGE [2]: hexamer
oligomer size ([3]; SEC): monomer, dimer,; also recorded: trimer
oligomer state consistent with SEC elution volume ([3]; absence of SDS): dimers and trimers; also recorded: monomer, dimer, and trimer
